Test results reported in patent US12576087B2, “Aryloxypiperidine pyrazole compounds as indoleamine 2,3-dioxygenase inhibitors” (Merck Sharp & Dohme LLC, priority 2018, dated 2026).

Target: IDO1 (Homo sapiens, UniProt P14902)
Test: IDO1 Human Whole Blood Assay
Format: cell-based
Details: WBLD taken as whole blood; read-out: WBLD IC50
Method: Compounds to be tested were serially diluted in ten 3-fold steps in DMSO starting from 10 mM. 3 μL of compound dilutions or DMSO alone were then dispensed from the dilution plate into a polypropylene 96-well assay plate containing 97 μL of RPMI medium using an Echo 555 acoustic liquid handler (Labcyte). LPS and IFNγ was prepared in RPMI medium to a 10× of final conc. (1000 ng/mL), final concentration is 100 ng/mL.
Human whole blood was drawn in sodium heparin coated tubes from healthy internal donors. 240 μL of blood was transferred to each of the wells of a v-bottom 96 well plate. 30 μL of compound was transferred from intermediate dilution plate, and incubated for 15 min. 30 μL from stimulants was then transferred to blood and mixed thoroughly. Plate was covered with breathable membrane and incubated at 37° C. for overnight (18 h).
On day 2, isotope labeled standard solutions of kunurenine and tryptophan was made in water at 10× concentration and 30 μL was added to the blood at 3 μM final concentration. The assay plates were centrifuged at 300×G for 10 min with no brake to separate plasma from red blood cells. 60 μL of plasma samples was removed without disturbing red blood cells. Plasma was diluted with RPMI in 1:1 ratio and proteins were precipitated out with two volumes of Acetonitrile. The plates were centrifuged at 4000×G for 60 min. 20 μL of supernatant was carefully transferred to a 384 well plate containing 40 μL of 0.1% formic acid in water and analyzed by LC/MS/MS.
LC/MS/MS analyses were performed using Thermo Fisher's LX4-TSQ Quantum Ultra system. This system consists of four Agilent binary high-performance liquid chromatography (HPLC) pumps and a TSQ Quantum Ultra triple quadrupole MS/MS instrument. For each sample, 5 μL were injected onto an Atlantis T3 column (2.1 mm×150 mm, 3 μm particle size) from Waters. The mobile phase gradient pumped at 0.8 mL/min was used to elute the analytes from the column at 25° C. The elution started at 0% B increasing linearly to 25% B at 6.5 min, holding at 25% for 1 min, re-equilibrating to 10 min. Mobile phase A consisted of 0.1% formic acid in water. Mobile phase B consisted of 0.1% of formic acid in acetonitrile. Data were acquired in positive mode using a HESI interface. The operational parameters for the TSQ Quantum Ultra instrument were a spray voltage of 4000 V, capillary temperature of 380° C., vaporizer temperature 400° C., shealth gas 60 arbitrary units, Aux gas 20 arbitrary units, tube lens 85 and collision gas 1.2 mTorr. SRM chromatograms of kynurenine (Q1: 209.2>Q3:94.0) and internal standard (Q1: 215.3>Q3:98.2) were collected for 90 sec. The peak area was integrated by Xcalibur Quan software. The ratios between the kynurenine generated in the reaction and 2D6-Kynurenine spiked-in internal standard were used to generate percentage inhibition and IC50 values. Compounds were titrated and IC50's were calculated by 4 parameter sigmoidal curve fitting formula.

Sequence of IDO1 (P14902 whole entry): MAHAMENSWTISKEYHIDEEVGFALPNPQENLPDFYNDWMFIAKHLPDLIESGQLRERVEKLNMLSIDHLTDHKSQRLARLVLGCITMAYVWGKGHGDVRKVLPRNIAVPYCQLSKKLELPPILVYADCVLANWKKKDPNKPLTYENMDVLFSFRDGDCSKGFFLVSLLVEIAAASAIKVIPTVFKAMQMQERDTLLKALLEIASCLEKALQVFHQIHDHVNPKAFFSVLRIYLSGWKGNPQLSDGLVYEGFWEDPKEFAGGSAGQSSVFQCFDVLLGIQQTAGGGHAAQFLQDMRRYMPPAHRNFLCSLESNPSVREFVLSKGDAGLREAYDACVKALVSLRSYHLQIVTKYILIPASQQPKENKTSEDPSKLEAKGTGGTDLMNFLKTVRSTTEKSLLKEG

Row | SMILES | IC50
1 | Cc1ccccc1OC1CCN(C(=O)Cn2nc(C(=O)N3CC[C@H](O)[C@@H](F)C3)c3c2CCCC3)CC1 [Example 23, 2-(3-((3S,4S)-3-fluoro-4-hydroxypiperidine-1-carbonyl)-4,5,6,7-tetrahydro-1H-indazol-1-yl)-1-(4-(o-tolyloxy)piperidin-1-yl)ethanone] | 22.9 nM
2 | CC(=O)NC1CCN(C(=O)c2nn(CC(=O)N3CCC(Oc4ccccc4C)CC3)c3c2[C@@H]2C[C@@H]2C3)CC1 [Example 29, N-(1-((3bR,4aR)-1-(2-oxo-2-(4-(o-tolyloxy)piperidin-1-yl)ethyl)-3b,4,4a,5-tetrahydro-1H-cyclopropa[3,4]cyclopenta[1,2-c]pyrazole-3-carbonyl)piperidin-4-yl)acetamide] | 114 nM
3 | Cc1ccccc1OC1CCN(C(=O)Cn2nc(C(=O)N3CCN(C(=O)CO)CC3)c3c2C[C@H]2C[C@@H]32)CC1 [Example 2, 2-Hydroxy-1-(4-((3bR,4aR)-1-(2-oxo-2-(4-(o-tolyloxy)piperidin-1-yl)ethyl)-3b,4,4a,5-tetrahydro-1H-cyclopropa[3,4]cyclopenta[1,2-c]pyrazole-3-carbonyl)piperazin-1-yl)ethanone] | 13 nM
4 | Cc1ccccc1OC1CCN(C(=O)Cn2nc(C(=O)N3CC[C@@H](O)[C@@H](F)C3)c3c2CCC3)CC1 [Example 40, 2-(3-((3S,4R)-3-fluoro-4-hydroxypiperidine-1-carbonyl)-5,6-dihydrocyclopenta[c]pyrazol-1(4H)-yl)-1-(4-(o-tolyloxy)piperidin-1-yl)ethanone] | 107 nM
5 | Cc1cc(F)ccc1OC1CCN(C(=O)Cn2nc(C(=O)N3CCN(C(=O)CO)CC3)c3c2CCCC3)CC1 [Example 79, 1-[4-(4-fluoro-2-methyl-phenoxy)-1-piperidyl]-2-[3-[4-(2-hydroxyacetyl)piperazine-1-carbonyl]-4,5,6,7-tetrahydroindazol-1-yl]ethanone] | 140 nM
6 | Cc1cc(F)ccc1OC1CCN(C(=O)Cn2nc(C(=O)N3CC[C@H](O)[C@H](F)C3)c3c2CCCC3)CC1 (racemic) [Example 77, 1-[4-(4-fluoro-2-methyl-phenoxy)-1-piperidyl]-2-[3-[rac-(3R,4S)-3-fluoro-4-hydroxy-piperidine-1-carbonyl]-4,5,6,7-tetrahydroindazol-1-yl]ethanone] | 267 nM
7 | Cc1cc(F)ccc1OC1CCN(C(=O)Cn2nc(C(=O)N3CCC(F)(CO)CC3)c3c2CCCC3)CC1 [Example 78, 2-[3-[4-fluoro-4-(hydroxymethyl)piperidine-1-carbonyl]-4,5,6,7-tetrahydroindazol-1-yl]-1-[4-(4-fluoro-2-methyl-phenoxy)-1-piperidyl]ethanone] | 19.7 nM
8 | Cc1ccccc1OC1CCN(C(=O)Cn2nc(C(=O)N3CCC(O)(CF)CC3)c3c2CCCC3)CC1 [Example 26, 2-(3-(4-(fluoromethyl)-4-hydroxypiperidine-1-carbonyl)-4,5,6,7-tetrahydro-1H-indazol-1-yl)-1-(4-(o-tolyloxy)piperidin-1-yl)ethanone] | 93.8 nM
9 | Cc1cc(F)ccc1OC1CCN(C(=O)Cn2nc(C(=O)N3CCC(OCCO)CC3)c3c2CCCC3)CC1 [Example 76, 1-[4-(4-fluoro-2-methyl-phenoxy)-1-piperidyl]-2-[3-[4-(2-hydroxyethoxy)piperidine-1-carbonyl]-4,5,6,7-tetrahydroindazol-1-yl]ethanone] | 59.8 nM
10 | C[C@@H]1C[C@H](Oc2ncccc2C(F)(F)F)CCN1C(=O)Cn1nc(C(=O)N2CCC(OCCO)CC2)c2c1C[C@H]1C[C@@H]21 [Example 8, 2-((3bR,4aR)-3-(4-(2-hydroxyethoxy)piperidine-1-carbonyl)-3b,4,4a,5-tetrahydro-1H-cyclopropa[3,4]cyclopenta[1,2-c]pyrazol-1-yl)-1-((2R,4R)-2-methyl-4-((3-(trifluoromethyl)pyridin-2-yl)oxy)piperidin-1-yl)ethanone] | 212 nM
11 | Cc1ccccc1OC1CCN(C(=O)Cn2nc(C(=O)N3CCN(C(=O)CO)CC3)c3c2CCCC3)CC1 [Example 38, 2-hydroxy-1-(4-(1-(2-oxo-2-(4-(o-tolyloxy)piperidin-1-yl)ethyl)-4,5,6,7-tetrahydro-1H-indazole-3-carbonyl)piperazin-1-yl)ethanone] | 33 nM
12 | CC(=O)NC1CCN(C(=O)c2nn(CC(=O)N3CCC(Oc4ccccc4C)CC3)c3c2CCCC3)CC1 [Example 24, N-(1-(1-(2-oxo-2-(4-(o-tolyloxy)piperidin-1-yl)ethyl)-4,5,6,7-tetrahydro-1H-indazole-3-carbonyl)piperidin-4-yl)acetamide] | 314 nM
13 | Cc1ccccc1OC1CCN(C(=O)Cn2nc(C(=O)N3CCC(O)(C(F)F)CC3)c3c2CCCC3)CC1 [Example 22, 2-(3-(4-(difluoromethyl)-4-hydroxypiperidine-1-carbonyl)-4,5,6,7-tetrahydro-1H-indazol-1-yl)-1-(4-(o-tolyloxy)piperidin-1-yl)ethanone] | 92.4 nM

Continued, values first:

Row | IC50 | SMILES
14 | 86.6 nM | C[C@@H]1CN(C(=O)c2nn(CC(=O)N3CCC(Oc4cc(F)ccc4Br)CC3)c3c2CCC3)C[C@H](C)O1 [Example 91, 1-[4-(2-bromo-5-fluorophenoxy)piperidin-1-yl]-2-{3-[(2R,6S)-2,6-dimethylmorpholine-4-carbonyl]-5,6-dihydrocyclopenta[c]pyrazol-1(4H)-yl}ethan-1-one]
15 | 490 nM | C[C@@H]1CN(C(=O)c2nn(CC(=O)N3CCC(Oc4ccc(F)cc4Cl)CC3)c3c2CCC3)C[C@H](C)O1 [Example 117, 1-[4-(2-chloro-4-fluorophenoxy)piperidin-1-yl]-2-{3-[(2R,6S)-2,6-dimethylmorpholine-4-carbonyl]-5,6-dihydrocyclopenta[c]pyrazol-1(4H)-yl}ethan-1-one]
16 | 360 nM | Cc1ccc(OC2CCN(C(=O)Cn3nc(C(=O)N4C[C@@H](C)O[C@@H](C)C4)c4c3CCC4)CC2)cc1 [Example 95, 2-{3-[(2R,6S)-2,6-dimethylmorpholine-4-carbonyl]-5,6-dihydrocyclopenta[c]pyrazol-1(4H)-yl}-1-[4-(4-methylphenoxy)piperidin-1-yl]ethan-1-one]
17 | 150 nM | O=C(c1nn(CC(=O)N2CCC(Oc3ccccc3Cl)C3CC32)c2c1[C@@H]1C[C@@H]1C2)N1CCC(OCCO)CC1 (single isomer, unassigned) [Example 171]
18 | 112 nM | Cc1ccc(F)cc1OC1CCN(C(=O)Cn2nc(C(=O)N3C[C@@H](C)O[C@@H](C)C3)c3c2CCC3)CC1 [Example 135, 2-[3-(2,6-dimethylmorpholine-4-carbonyl)-5,6-dihydrocyclopenta[c]pyrazol-1(4H)-yl]-1-[4-(5-fluoro-2-methylphenoxy)piperidin-1-yl]ethan-1-one]
19 | 150 nM | C[C@@H]1CN(C(=O)c2nn(CC(=O)N3CCC(Oc4cc(F)ccc4Cl)CC3)c3c2CCC3)C[C@H](C)O1 [Example 133, 1-[4-(2-chloro-5-fluorophenoxy)piperidin-1-yl]-2-{3-[(2R,6S)-2,6-dimethylmorpholine-4-carbonyl]-5,6-dihydrocyclopenta[c]pyrazol-1(4H)-yl}ethan-1-one]
20 | 532 nM | Cc1ccccc1SC1CCN(C(=O)Cn2nc(C(=O)N3CC[C@@H](O)[C@@H](F)C3)c3c2C[C@H]2C[C@@H]32)CC1 [Example 177, 2-((3bR,4aR)-3-((3S,4R)-3-Fluoro-4-hydroxypiperidine-1-carbonyl)-3b,4,4a,5-tetrahydro-1H-cyclopropa[3,4]cyclopenta[1,2-c]pyrazol-1-yl)-1-(4-(o-tolylthio)piperidin-1-yl)ethanone]
21 | 102 nM | O=C(CO)N1CCN(C(=O)c2nn(CC(=O)N3CCC(Oc4ccccc4Cl)C4CC43)c3c2[C@@H]2C[C@@H]2C3)CC1 (single isomer, unassigned) [Example 170]
22 | 49.2 nM | Cc1c(F)cccc1OC1CCN(C(=O)Cn2nc(C(=O)N3C[C@@H](C)O[C@@H](C)C3)c3c2CCC3)CC1 [Example 128, 2-{3-[(2R,6S)-2,6-dimethylmorpholine-4-carbonyl]-5,6-dihydrocyclopenta[c]pyrazol-1(4H)-yl}-1-[4-(3-fluoro-2-methylphenoxy)piperidin-1-yl]ethan-1-one]

Same assay, conditions: human whole blood, LPS and IFNγ 100 ng/mL, 18 h, kynurenine by LC/MS/MS; read-out: IDO1 human whole blood assay, IC50

Row | SMILES | IC50
23 | CC(=O)NC1CCN(C(=O)c2nn(CC(=O)N3CCC(Oc4ccccc4C)CC3)c3c2[C@@H]2C[C@@H]2C3)CC1 [Example 29, N-(1-((3bR,4aR)-1-(2-oxo-2-(4-(o-tolyloxy)piperidin-1-yl)ethyl)-3b,4,4a,5-tetrahydro-1H-cyclopropa[3,4]cyclopenta[1,2-c]pyrazole-3-carbonyl)piperidin-4-yl)acetamide] | 625 nM
